According to ChEMBL document CHEMBL6078682, “Circumventing Imatinib resistance in CML: Novel Telmisartan-based cell death modulators with improved activity and stability” (Eur J Med Chem, 2025):
Values after ≈ are worked out from the molar mass of the structure shown. Active and inactive are the calls of the source. The calls are words filed in the database; no cut-off is given here.

Legend:
[1] = Retention time of compound by HPLC analysis; type: physicochemical
K562 [2] = experiment: Re-sensitization of human K562 cells to imatinib assessed as reduction in metabolic activity at 10 uM in presence of imatinib by EZ4U assay; type: functional, cell-based
[3] = Stability in cell culture medium containing fetal bovine serum assessed as compound remaining at 200 uM at 37 degreeC measured after 72 hrs by RP-HPLC analysis; type: ADME, cell-free; settings: cattle, read-out: Stability
K562 [4] = experiment: Re-sensitization of human K562 cells to imatinib assessed as reduction in metabolic activity at 5 uM in presence of 1 uM imatinib by EZ4U assay; type: functional, cell-based
K562 [5] = experiment: Re-sensitization of human K562 cells to imatinib assessed as reduction in metabolic activity by measuring maximal sensitizing concentration in presence of imatinib by EZ4U assay; type: functional, cell-based; settings: read-out: EC50
Liver carboxylesterase [6] = molecular target: T1, Liver carboxylesterase (Sus scrofa, UniProt Q29550); experiment: Stability of the compound assessed as porcine liver esterase-mediated hydrolysis by measuring half life at 800 uM measured after 180 mins by HPLC analysis; type: ADME; settings: pig
T1 sequence (Q29550 whole entry): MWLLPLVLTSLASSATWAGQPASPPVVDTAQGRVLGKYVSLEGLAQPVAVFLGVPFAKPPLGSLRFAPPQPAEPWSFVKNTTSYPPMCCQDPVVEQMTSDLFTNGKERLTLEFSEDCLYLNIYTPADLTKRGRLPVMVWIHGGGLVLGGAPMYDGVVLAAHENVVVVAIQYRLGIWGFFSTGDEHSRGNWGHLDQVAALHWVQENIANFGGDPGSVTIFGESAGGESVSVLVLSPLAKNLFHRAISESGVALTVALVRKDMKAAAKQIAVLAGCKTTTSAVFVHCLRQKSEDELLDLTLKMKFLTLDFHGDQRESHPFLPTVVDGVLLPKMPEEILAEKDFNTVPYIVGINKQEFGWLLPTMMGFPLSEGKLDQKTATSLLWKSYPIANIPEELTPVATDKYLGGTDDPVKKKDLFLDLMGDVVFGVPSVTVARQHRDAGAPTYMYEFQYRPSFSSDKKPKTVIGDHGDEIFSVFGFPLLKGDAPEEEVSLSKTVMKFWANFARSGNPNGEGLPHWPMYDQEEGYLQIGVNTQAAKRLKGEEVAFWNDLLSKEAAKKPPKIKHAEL

COS-7 = experiment: Cytotoxicity against african green monkey COS-7 cells assessed as effect on metabolic activity at 10 uM incubated for 72 hrs by MTT assay; type: toxicity, cell-based; settings: chlorocebus aethiops, cos-7, 72 h
[7] = Cytotoxicity against human HS5 cells assessed as effect on metabolic activity at 10 uM incubated for 72 hrs by MTT assay; type: toxicity, cell-based; settings: hs5, 72 h
[8] = Stability of compound in PBS buffer incubated for 8 to 24 hrs by HPLC analysis; type: physicochemical; settings: time 8-24 hrs
[9] = Solubility of compound in DMSO measured for 30 mins by UV-spectroscopy analysis; type: physicochemical
K562-IMA[r] = experiment: Cytotoxicity against human Imatinib-resistant K562 cells assessed as effect on metabolic activity at 10 uM incubated for 72 hrs by MTT assay; type: functional, cell-based
K562 [10] = experiment: Re-sensitization of human K562 cells to imatinib assessed as reduction in metabolic activity at 5 uM in presence of imatinib by EZ4U assay; type: functional, cell-based
[11] = Drug uptake in human Imatinib-resistant K562 cells assessed as increase in fluorescent intensity measured after 3 hrs by coomassie brilliant blue staining based analysis; type: ADME, cell-based; settings: k562-ima[r]
[12] = Drug uptake in human Imatinib-resistant K562 cells assessed as increase in fluorescent intensity measured after 24 hrs by coomassie brilliant blue staining based analysis; type: ADME, cell-based; settings: k562-ima[r]
[13] = Drug uptake in human Imatinib-resistant K562 cells assessed as increase in fluorescent intensity measured after 1 hr by coomassie brilliant blue staining based analysis; type: ADME, cell-based; settings: k562-ima[r]
[14] = Stability of the compound assessed as Pseudomonas aeruginosa Amidase-mediated hydrolysis at 800 uM measured after 6 hrs by HPLC analysis; type: ADME; settings: isolated protein
Liver carboxylesterase [15] = molecular target: T1, Liver carboxylesterase; experiment: Stability of the compound assessed as porcine liver esterase-mediated hydrolysis at 800 uM measured after 180 mins by HPLC analysis; type: ADME; settings: pig, isolated protein, 3 h
[16] = Stability of the compound assessed as Pseudomonas aeruginosa Amidase-mediated hydrolysis at 800 uM measured after 24 hrs by HPLC analysis; type: ADME; settings: isolated protein
amidase = experiment: Stability of the compound assessed as Pseudomonas aeruginosa Amidase-mediated hydrolysis by measuring half life at 800 uM measured after 24 hrs by HPLC analysis; type: ADME

SMILES | Retention_time [1] | Activity (K562 [2]) | remaining at 72 h, 200 µM [3] | Activity (K562 [4]) | maximal sensitizing concentration (K562 [5]) | half-life at 800 µM (Liver carboxylesterase [6]) | Activity (COS-7) | Activity [7] | Stability [8] | solubility at 0.5 h [9] | Activity (K562-IMA[r]) | Activity (K562 [10]) | Drug uptake [11] | Drug uptake [12] | Drug uptake [13] | Stability [14] | Stability (Liver carboxylesterase [15]) | Stability [16] | half-life at 800 µM (amidase)
CCCc1nc2ccccc2n1Cc1ccc(-c2ccccc2C(=O)O)cc1 | 10.8 min | Active |  |  |  |  |  |  |  |  |  |  |  |  |  |  |  |  | 
CCCc1nc2ccccc2n1Cc1ccc(-c2ccccc2C(=O)Oc2ccc(Oc3ccccc3)cc2)cc1 | 15.2 min |  | 99.8% | Active | 2500 nM | 6.17 h | Non-toxic | Non-toxic | Stable | 22 mM (≈ 11.9 mg/mL) | inactive |  |  |  |  |  |  |  | 
CCCCOC(=O)c1ccccc1-c1ccc(Cn2c(CCC)nc3ccccc32)cc1 | < 13.8 min |  | 78% | Active | 1600 nM | 1.37 h | Non-toxic | Non-toxic | Stable |  | inactive |  |  |  |  |  |  |  | 
CCCc1nc2ccccc2n1Cc1ccc(-c2ccccc2C(=O)Oc2ccc(-c3ccccc3)cc2)cc1 | 15.3 min |  |  |  |  |  |  |  | Stable | 16 mM (≈ 8.36 mg/mL) |  |  |  |  |  |  |  |  | 
CCCc1nc2ccccc2n1Cc1ccc(-c2ccccc2C(=O)OC(C)C)cc1 | 13.1 min |  | 91.9% | Active | 2200 nM |  | Non-toxic | Non-toxic | Stable |  | inactive |  |  |  |  |  |  |  | 
CCCc1nc2ccccc2n1Cc1ccc(-c2ccccc2C(=O)OC)cc1 | 12.4 min |  | 67.8% |  | 2400 nM | 0.917 h | Non-toxic | Non-toxic | Stable |  | inactive | Active | 3.5 nmol/mg | 4.7 nmol/mg | 3 nmol/mg |  |  |  | 
CCCc1nc2ccccc2n1Cc1ccc(-c2ccccc2C(=O)NC(C)C)cc1 | 10.8 min |  | 99.1% | Active | 4800 nM |  | Non-toxic | Non-toxic | Stable |  | inactive |  |  |  |  |  |  |  | 
CCCc1nc2ccccc2n1Cc1ccc(-c2ccccc2C(=O)Nc2ccc(Oc3ccccc3)cc2)cc1 | 13.6 min |  | 102% | Active | 1300 nM |  | Non-toxic | Non-toxic | Stable |  | inactive |  |  |  |  | Stable | Stable |  | 
CCCOC(=O)c1ccccc1-c1ccc(Cn2c(CCC)nc3ccccc32)cc1 | < 13.6 min |  | 75.9% | Active | 1800 nM | 1.16 h | Non-toxic | Non-toxic | Stable |  | inactive |  |  |  |  |  |  |  | 
CCCc1nc2ccccc2n1Cc1ccc(-c2ccccc2C(=O)Oc2ccccc2)cc1 | 13.7 min |  | 94.8% | Active | 1500 nM | 4.67 h | Non-toxic | Non-toxic | Stable |  | inactive |  | 13.1 nmol/mg | 15.7 nmol/mg |  |  |  |  | 
CCCCNC(=O)c1ccccc1-c1ccc(Cn2c(CCC)nc3ccccc32)cc1 | < 11.6 min |  | 97.1% | Active | 1300 nM |  | Non-toxic | Non-toxic | Stable |  | inactive |  |  |  |  | Stable | Stable |  | 
CCCc1nc2ccccc2n1Cc1ccc(-c2ccccc2C(=O)NCC)cc1 | < 10.3 min |  | 95.1% | Active | 6200 nM |  | Non-toxic | Non-toxic | Stable |  | inactive |  |  |  |  |  | Stable | Stable | 65 h
CCCNC(=O)c1ccccc1-c1ccc(Cn2c(CCC)nc3ccccc32)cc1 | < 11.1 min |  | 95.1% | Active | 4500 nM |  | Non-toxic | Non-toxic | Stable |  | inactive |  |  |  |  |  |  |  | 
CCCc1nc2ccccc2n1Cc1ccc(-c2ccccc2C(=O)OC(C)(C)C)cc1 | 13.4 min |  | 97.2% | Active | 2900 nM |  | Non-toxic | Non-toxic | Stable |  | inactive |  |  |  |  |  |  |  | 
CCCc1nc2ccccc2n1Cc1ccc(-c2ccccc2C(=O)NC(C)(C)C)cc1 | 11.5 min |  | 100% | Active | 5200 nM |  | Non-toxic | Non-toxic | Stable |  | inactive |  |  |  |  | Stable | Stable |  | 
CCCc1nc2ccccc2n1Cc1ccc(-c2ccccc2C(=O)OCC)cc1 | < 12.8 min |  | 71.9% | Active | 2100 nM | 1.05 h | Non-toxic | Non-toxic | Stable |  | inactive |  |  |  |  |  |  |  | 
